From paper PMC4844702, “Selective inhibition of the kinase DYRK1A by targeting its folding process” (Nature Communications, 2016)

Tests used:
Test in all cases: Kinase panel (Carna)
Type in all cases: biochemical
[1] = molecular target: T1, CDK7/CycH/MAT1 (Homo sapiens, UniProt P50613)
T1 construct: purchased Carna Biosciences
From the text: (§1) Detailed information on the assay conditions is available on the website of Carna Biosciences (http://www.carnabio.com).

[2] = molecular target: T2, BRSK1 (Homo sapiens, UniProt Q8TDC3)
T2 construct: purchased Carna Biosciences
From the text: as §1

[3] = molecular target: T3, EPHB1 (Homo sapiens, UniProt P54762)
T3 construct: purchased Carna Biosciences
From the text: as §1

[4] = molecular target: T4, RSK1 (Homo sapiens, UniProt Q15418)
T4 construct: purchased Carna Biosciences

[5] = molecular target: T5, EPHB2 (Homo sapiens, UniProt P29323)
T5 construct: purchased Carna Biosciences
From the text: as §1

[6] = molecular target: T6, IRAK1 (Homo sapiens, UniProt P51617)
T6 construct: purchased Carna Biosciences
From the text: as §1

[7] = molecular target: T7, Erk2 (Homo sapiens, UniProt P28482)
T7 construct: purchased Carna Biosciences

[8] = molecular target: T8, HIPK3 (Homo sapiens, UniProt Q9H422)
T8 construct: purchased Carna Biosciences
From the text: as §1

[9] = molecular target: T9, SPHK1 (Homo sapiens, UniProt Q9NYA1)
T9 construct: purchased Carna Biosciences
From the text: as §1

[10] = molecular target: T10, LTK (Homo sapiens, UniProt P29376)
T10 construct: purchased Carna Biosciences
From the text: as §1

[11] = molecular target: T11, MAP3K1_Cascade (Homo sapiens, UniProt Q13233)
T11 construct: purchased Carna Biosciences
T11 sequence (Q13233 whole entry): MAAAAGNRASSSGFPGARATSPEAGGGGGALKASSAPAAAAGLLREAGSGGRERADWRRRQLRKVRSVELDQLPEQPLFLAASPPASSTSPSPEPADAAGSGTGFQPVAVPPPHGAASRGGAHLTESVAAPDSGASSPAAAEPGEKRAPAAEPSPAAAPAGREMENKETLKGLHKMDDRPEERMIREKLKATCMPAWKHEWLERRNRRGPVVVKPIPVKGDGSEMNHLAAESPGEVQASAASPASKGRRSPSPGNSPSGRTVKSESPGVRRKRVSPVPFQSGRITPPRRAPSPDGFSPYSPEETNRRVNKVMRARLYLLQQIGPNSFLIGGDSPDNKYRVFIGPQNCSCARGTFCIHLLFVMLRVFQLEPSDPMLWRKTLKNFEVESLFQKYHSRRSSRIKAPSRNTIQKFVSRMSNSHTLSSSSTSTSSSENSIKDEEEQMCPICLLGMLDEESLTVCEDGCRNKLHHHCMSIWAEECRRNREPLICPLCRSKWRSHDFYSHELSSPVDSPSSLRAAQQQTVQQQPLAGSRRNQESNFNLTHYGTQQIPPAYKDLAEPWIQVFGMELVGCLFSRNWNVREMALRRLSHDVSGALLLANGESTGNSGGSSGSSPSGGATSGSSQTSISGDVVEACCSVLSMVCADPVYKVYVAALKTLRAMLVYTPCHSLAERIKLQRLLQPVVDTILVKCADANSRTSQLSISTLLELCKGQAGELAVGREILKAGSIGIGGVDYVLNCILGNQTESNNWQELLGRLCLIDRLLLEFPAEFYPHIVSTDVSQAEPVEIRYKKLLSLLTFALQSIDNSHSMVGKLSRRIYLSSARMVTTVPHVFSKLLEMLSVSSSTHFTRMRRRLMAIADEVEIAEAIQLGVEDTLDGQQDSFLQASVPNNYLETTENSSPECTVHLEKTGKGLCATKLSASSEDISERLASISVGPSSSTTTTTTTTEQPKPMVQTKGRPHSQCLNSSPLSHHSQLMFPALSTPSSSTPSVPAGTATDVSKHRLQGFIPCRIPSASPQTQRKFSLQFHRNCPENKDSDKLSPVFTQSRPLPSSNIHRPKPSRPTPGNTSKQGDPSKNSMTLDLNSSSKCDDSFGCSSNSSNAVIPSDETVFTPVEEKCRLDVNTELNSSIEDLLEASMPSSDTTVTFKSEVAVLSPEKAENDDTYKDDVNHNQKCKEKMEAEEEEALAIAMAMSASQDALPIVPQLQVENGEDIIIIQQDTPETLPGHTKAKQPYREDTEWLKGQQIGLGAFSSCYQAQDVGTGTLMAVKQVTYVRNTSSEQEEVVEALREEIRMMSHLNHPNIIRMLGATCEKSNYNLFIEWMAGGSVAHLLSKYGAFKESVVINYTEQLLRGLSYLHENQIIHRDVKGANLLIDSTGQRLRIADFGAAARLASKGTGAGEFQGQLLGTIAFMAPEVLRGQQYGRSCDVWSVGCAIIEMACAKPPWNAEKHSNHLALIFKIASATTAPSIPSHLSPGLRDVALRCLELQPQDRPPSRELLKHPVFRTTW
From the text: as §1

[12] = molecular target: T12, EPHA4 (Homo sapiens, UniProt P54764)
T12 construct: purchased Carna Biosciences

[13] = molecular target: T13, NuaK1 (Homo sapiens, UniProt O60285)
T13 construct: purchased Carna Biosciences

[14] = molecular target: T14, SRM (Homo sapiens, UniProt Q9H3Y6)
T14 construct: purchased Carna Biosciences
From the text: as §1

[15] = molecular target: T15, RON (Homo sapiens, UniProt Q04912)
T15 construct: purchased Carna Biosciences
From the text: as §1

[16] = molecular target: T16, BRK (Homo sapiens, UniProt Q13882)
T16 construct: purchased Carna Biosciences
From the text: as §1

[17] = molecular target: T17, EPHA6 (Homo sapiens, UniProt Q9UF33)
T17 construct: purchased Carna Biosciences
T17 sequence (Q9UF33 23-1036): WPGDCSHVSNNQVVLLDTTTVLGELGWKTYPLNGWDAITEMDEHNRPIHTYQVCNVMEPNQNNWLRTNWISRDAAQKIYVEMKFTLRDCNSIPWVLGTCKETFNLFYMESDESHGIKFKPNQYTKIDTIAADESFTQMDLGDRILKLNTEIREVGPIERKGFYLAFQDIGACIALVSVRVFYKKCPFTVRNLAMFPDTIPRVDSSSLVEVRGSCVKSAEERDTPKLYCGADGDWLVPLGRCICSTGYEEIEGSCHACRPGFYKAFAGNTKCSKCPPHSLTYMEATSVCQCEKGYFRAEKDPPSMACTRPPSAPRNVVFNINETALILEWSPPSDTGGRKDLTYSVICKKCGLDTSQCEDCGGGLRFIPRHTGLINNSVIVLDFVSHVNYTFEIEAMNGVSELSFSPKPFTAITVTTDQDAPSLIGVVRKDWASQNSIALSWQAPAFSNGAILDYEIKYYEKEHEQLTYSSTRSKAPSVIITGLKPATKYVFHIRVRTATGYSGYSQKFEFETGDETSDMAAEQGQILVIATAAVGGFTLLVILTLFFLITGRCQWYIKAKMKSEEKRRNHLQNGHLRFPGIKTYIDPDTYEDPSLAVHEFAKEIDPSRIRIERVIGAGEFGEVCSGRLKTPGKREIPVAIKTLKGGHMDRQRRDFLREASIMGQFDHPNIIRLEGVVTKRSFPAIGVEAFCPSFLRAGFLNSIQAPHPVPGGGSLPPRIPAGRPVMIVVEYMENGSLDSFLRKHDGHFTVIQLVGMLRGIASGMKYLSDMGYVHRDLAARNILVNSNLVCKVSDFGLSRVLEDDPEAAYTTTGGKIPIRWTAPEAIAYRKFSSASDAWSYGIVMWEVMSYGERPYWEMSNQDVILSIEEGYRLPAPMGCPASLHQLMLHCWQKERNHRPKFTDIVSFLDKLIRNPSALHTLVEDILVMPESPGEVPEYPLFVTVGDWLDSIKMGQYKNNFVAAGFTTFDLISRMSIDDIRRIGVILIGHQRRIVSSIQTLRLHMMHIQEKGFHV

[18] = molecular target: T18, LYNa (Homo sapiens, UniProt P07948)
T18 construct: purchased Carna Biosciences
T18 sequence (P07948 whole entry): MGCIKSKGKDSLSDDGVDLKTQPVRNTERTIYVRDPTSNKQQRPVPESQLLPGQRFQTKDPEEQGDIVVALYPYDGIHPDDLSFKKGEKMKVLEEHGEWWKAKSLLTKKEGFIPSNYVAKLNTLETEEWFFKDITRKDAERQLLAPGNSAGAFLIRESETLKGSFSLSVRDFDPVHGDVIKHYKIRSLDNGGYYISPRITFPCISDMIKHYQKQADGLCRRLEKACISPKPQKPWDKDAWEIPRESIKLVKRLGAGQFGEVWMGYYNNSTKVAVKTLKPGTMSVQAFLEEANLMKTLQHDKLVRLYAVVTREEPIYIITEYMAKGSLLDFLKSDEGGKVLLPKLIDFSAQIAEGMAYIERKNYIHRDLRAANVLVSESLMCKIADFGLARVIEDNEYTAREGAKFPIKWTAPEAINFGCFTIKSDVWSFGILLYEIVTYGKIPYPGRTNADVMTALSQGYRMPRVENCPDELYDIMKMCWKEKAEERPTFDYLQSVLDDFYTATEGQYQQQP
From the text: as §1

[19] = molecular target: T19, p70S6Kβ (Homo sapiens, UniProt Q9UBS0)
T19 construct: purchased Carna Biosciences
From the text: as §1

[20] = molecular target: T20, ZAP70 (Homo sapiens, UniProt P43403)
T20 construct: purchased Carna Biosciences
From the text: as §1

[21] = molecular target: T21, BTK (Homo sapiens, UniProt Q06187)
T21 construct: purchased Carna Biosciences
T21 sequence (Q06187 whole entry): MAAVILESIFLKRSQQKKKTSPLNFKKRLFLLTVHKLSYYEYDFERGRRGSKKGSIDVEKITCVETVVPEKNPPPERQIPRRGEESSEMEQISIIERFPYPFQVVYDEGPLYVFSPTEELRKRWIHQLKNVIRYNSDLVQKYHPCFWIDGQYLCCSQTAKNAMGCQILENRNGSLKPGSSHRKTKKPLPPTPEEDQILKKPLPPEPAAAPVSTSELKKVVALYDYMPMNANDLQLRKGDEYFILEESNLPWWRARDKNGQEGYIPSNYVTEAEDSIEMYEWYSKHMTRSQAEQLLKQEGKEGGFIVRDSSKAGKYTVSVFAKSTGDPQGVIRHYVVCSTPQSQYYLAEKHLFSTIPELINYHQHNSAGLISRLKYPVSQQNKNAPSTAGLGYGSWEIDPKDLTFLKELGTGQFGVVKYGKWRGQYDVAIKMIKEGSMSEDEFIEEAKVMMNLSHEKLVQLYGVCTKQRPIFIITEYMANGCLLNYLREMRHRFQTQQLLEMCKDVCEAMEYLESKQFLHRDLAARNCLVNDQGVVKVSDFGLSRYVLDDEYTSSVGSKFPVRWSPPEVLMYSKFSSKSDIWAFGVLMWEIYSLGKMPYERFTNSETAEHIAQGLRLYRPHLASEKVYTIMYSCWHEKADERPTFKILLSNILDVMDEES
From the text: as §1

[22] = molecular target: T22, CDK2/CycE1 (Homo sapiens, UniProt P24941)
T22 construct: purchased Carna Biosciences
From the text: as §1

[23] = molecular target: T23, AurA (Homo sapiens, UniProt O14965)
T23 construct: purchased Carna Biosciences
From the text: as §1

[24] = molecular target: T24, QIK (Homo sapiens, UniProt Q9H0K1)
T24 construct: purchased Carna Biosciences

[25] = molecular target: T25, CDC7/ASK (Homo sapiens, UniProt O00311)
T25 construct: purchased Carna Biosciences
From the text: as §1

[26] = molecular target: T26, PAK4 (Homo sapiens, UniProt O96013)
T26 construct: purchased Carna Biosciences
From the text: as §1

[27] = molecular target: T27, IKKε (Homo sapiens, UniProt Q14164)
T27 construct: purchased Carna Biosciences
From the text: as §1

[28] = molecular target: T28, NEK2 (Homo sapiens, UniProt P51955)
T28 construct: purchased Carna Biosciences

[29] = molecular target: T29, SRPK2 (Homo sapiens, UniProt P78362)
T29 construct: purchased Carna Biosciences
From the text: as §1

[30] = molecular target: T30, MAPKAPK2 (Homo sapiens, UniProt P49137)
T30 construct: purchased Carna Biosciences
T30 sequence (P49137 whole entry): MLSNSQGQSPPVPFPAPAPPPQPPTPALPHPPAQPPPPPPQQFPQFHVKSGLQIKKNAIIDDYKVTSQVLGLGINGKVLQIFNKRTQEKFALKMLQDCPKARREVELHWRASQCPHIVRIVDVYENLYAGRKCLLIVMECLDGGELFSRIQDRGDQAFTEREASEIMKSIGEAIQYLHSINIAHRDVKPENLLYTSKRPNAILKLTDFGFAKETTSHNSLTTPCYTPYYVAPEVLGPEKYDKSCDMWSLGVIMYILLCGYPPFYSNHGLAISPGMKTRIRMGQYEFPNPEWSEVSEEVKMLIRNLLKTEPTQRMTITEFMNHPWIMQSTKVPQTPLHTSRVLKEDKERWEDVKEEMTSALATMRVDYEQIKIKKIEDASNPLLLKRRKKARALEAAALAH

[31] = molecular target: T31, BLK (Homo sapiens, UniProt P51451)
T31 construct: purchased Carna Biosciences
From the text: as §1

[32] = molecular target: T32, WNK3 (Homo sapiens, UniProt Q9BYP7)
T32 construct: purchased Carna Biosciences
From the text: as §1

[33] = molecular target: T33, CDK6/CycD3 (Homo sapiens, UniProt Q00534)
T33 construct: purchased Carna Biosciences
From the text: as §1

[34] = molecular target: T34, CaMK4 (Homo sapiens, UniProt Q16566)
T34 construct: purchased Carna Biosciences
T34 sequence (Q16566 whole entry): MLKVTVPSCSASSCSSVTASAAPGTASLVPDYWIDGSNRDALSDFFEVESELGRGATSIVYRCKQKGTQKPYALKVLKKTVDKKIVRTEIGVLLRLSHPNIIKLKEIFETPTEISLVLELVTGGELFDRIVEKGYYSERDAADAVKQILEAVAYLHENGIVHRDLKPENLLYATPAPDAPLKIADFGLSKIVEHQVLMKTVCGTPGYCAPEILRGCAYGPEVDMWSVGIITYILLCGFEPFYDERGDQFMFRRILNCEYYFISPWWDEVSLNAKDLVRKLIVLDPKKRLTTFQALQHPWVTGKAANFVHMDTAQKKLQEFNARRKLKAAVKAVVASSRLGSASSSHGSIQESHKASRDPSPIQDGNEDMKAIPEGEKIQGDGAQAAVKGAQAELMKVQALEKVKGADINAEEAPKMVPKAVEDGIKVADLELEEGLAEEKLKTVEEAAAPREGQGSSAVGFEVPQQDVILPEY

[35] = molecular target: T35, JNK1 (Homo sapiens, UniProt P45983)
T35 construct: purchased Carna Biosciences
T35 sequence (P45983 whole entry): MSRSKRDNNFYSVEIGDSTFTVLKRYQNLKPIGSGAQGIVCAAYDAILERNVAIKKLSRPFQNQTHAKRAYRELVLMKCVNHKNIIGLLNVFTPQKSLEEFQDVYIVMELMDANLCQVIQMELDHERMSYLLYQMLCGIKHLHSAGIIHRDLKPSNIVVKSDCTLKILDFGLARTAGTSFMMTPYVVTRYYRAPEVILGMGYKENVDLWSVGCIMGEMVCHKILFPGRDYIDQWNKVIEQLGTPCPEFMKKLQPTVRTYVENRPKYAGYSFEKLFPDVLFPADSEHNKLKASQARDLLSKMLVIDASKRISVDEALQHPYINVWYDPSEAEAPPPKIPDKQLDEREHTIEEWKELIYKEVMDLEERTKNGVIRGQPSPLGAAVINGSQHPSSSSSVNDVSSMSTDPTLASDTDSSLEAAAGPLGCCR
From the text: as §1

[36] = molecular target: T36, FGFR1 (Homo sapiens, UniProt P11362)
T36 construct: purchased Carna Biosciences

[37] = molecular target: T37, PAK1 (Homo sapiens, UniProt Q13153)
T37 construct: purchased Carna Biosciences
From the text: as §1

[38] = molecular target: T38, HIPK4 (Homo sapiens, UniProt Q8NE63)
T38 construct: purchased Carna Biosciences
From the text: as §1

[39] = molecular target: T39, SPHK2 (Homo sapiens, UniProt Q9NRA0)
T39 construct: purchased Carna Biosciences
From the text: as §1

[40] = molecular target: T40, FLT3 (Homo sapiens, UniProt P36888)
T40 construct: purchased Carna Biosciences
From the text: as §1

[41] = molecular target: T41, PKD1 (Homo sapiens, UniProt Q15139)
T41 construct: purchased Carna Biosciences
From the text: as §1

[42] = molecular target: T42, AurC (Homo sapiens, UniProt Q9UQB9)
T42 construct: purchased Carna Biosciences
From the text: as §1

[43] = molecular target: T43, TNK1 (Homo sapiens, UniProt Q13470)
T43 construct: purchased Carna Biosciences
From the text: as §1

[44] = molecular target: T44, FER (Homo sapiens, UniProt P16591)
T44 construct: purchased Carna Biosciences
From the text: as §1

Work on `COc1ccc(/C=C2\SC(=S)NC2=O)cc1C#C[Si](C)(C)C` [FINDY] yielded an inhibition at 10 µM [1] of 15.2%, an inhibition at 10 µM [2] of 24.3% and an inhibition at 10 µM [3] of 13.9%. It also gave an inhibition at 10 µM [4] of 39.8%, an inhibition at 10 µM [5] of 10.1% and an inhibition at 10 µM [6] of -1.1%. For the same molecule, the inhibition at 10 µM [7] was 36.4%, the inhibition at 10 µM [8] was 7.1% and the inhibition at 10 µM [9] was 51.2%. For the same molecule, the inhibition at 10 µM [10] was 4.6%, the inhibition at 10 µM [11] was 44.4% and the inhibition at 10 µM [12] was 16.3%. It also gave an inhibition at 10 µM [13] of -26.4%, an inhibition at 10 µM [14] of 32.9% and an inhibition at 10 µM [15] of 9.2%. It also gave an inhibition at 10 µM [16] of 3%, an inhibition at 10 µM [17] of 59.4% and an inhibition at 10 µM [18] of 4%. For the same molecule, the inhibition at 10 µM [19] was 19.9%, the inhibition at 10 µM [20] was 12.9% and the inhibition at 10 µM [21] was 57.9%. For the same molecule, the inhibition at 10 µM [22] was 64.9%, the inhibition at 10 µM [23] was 58.7% and the inhibition at 10 µM [24] was -7.7%. For the same molecule, the inhibition at 10 µM [25] was 14.1%, the inhibition at 10 µM [26] was -20.1% and the inhibition at 10 µM [27] was -2%. For the same molecule, the inhibition at 10 µM [28] was -5.1%, the inhibition at 10 µM [29] was -5% and the inhibition at 10 µM [30] was 51.9%. It also gave an inhibition at 10 µM [31] of 25.5%, an inhibition at 10 µM [32] of 18.9% and an inhibition at 10 µM [33] of 3.2%. For the same molecule, the inhibition at 10 µM [34] was 2.4%, the inhibition at 10 µM [35] was 1.5% and the inhibition at 10 µM [36] was 37%. For the same molecule, the inhibition at 10 µM [37] was -0.2%, the inhibition at 10 µM [38] was 16.6% and the inhibition at 10 µM [39] was 4.9%. It also gave an inhibition at 10 µM [40] of 16%, an inhibition at 10 µM [41] of 11.8% and an inhibition at 10 µM [42] of 40.1%. It also gave an inhibition at 10 µM [43] of 7.3% and an inhibition at 10 µM [44] of 14.3%.
